System: adult patients with essential tremor
Assay: Example 16: video-reviewed TETRAS performance subscale and upper limb score; on TETRAS Performance Subscale Total Score by Video Review, Change from Baseline, Mean (SD): test concentration or dose not given here; on TETRAS Performance Subscale Total Score by Video Review, Change from Baseline, Median: test concentration or dose not given here; on TETRAS Performance Subscale Total Score by Video Review, Mean (SD): test concentration or dose not given here; on TETRAS Performance Subscale Total Score by Video Review, Median: test concentration or dose not given here
Type: in vivo, human
Text: Video-reviewed TETRAS Analyses Video reviewed TETRAS assessments were generally consistent with those conducted at the clinic. Video reviewed TETRAS performance subscale total scores are summarized for Part A, the open-label titration phase of Part B, and the randomized withdrawal phase of Part B in Table 42, Table 43, and Table 44.
Video reviewed upper limb score values were generally consistent with those conducted at the clinic and are summarized for Part A, the open-label titration phase of Part B, and the randomized withdrawal phase of Part B in Table 45, Table 46, and Table 47, respectively.

[1] = Day 1, 6 hours Post - dose, Part A (N = 7)
[2] = Day 1, 6 hours Post - dose, Part B Open-Label Titration Phase (N = 17)
[3] = Day 1, 6 hours Post - dose, Part B, Formula (I) arm (N = 6)
[4] = Day 7, Part B Open-Label Titration Phase (N = 17)
[5] = Day 7, Part B, Formula (I) arm (N = 6)
[6] = Day 21, Part B Open-Label Titration Phase (N = 17)

CC(C)(C)NC(=O)CN1CCC(CNC(=O)c2cc(F)cc(Cl)c2)CC1 [compound of formula (I), N-((1-(2-(tert-butylamino)-2-oxoethyl)piperidin-4-yl)methyl)-3-chloro-5-fluorobenzamide]
TETRAS Performance Subscale Total Score by Video Review, Change from Baseline, Mean (SD) [1]: 0.29 (1.753)
TETRAS Performance Subscale Total Score by Video Review, Change from Baseline, Median [1]: 0.50
TETRAS Performance Subscale Total Score by Video Review, Mean (SD) [1]: 24.00 (5.148)
TETRAS Performance Subscale Total Score by Video Review, Median [1]: 23.00
TETRAS Performance Subscale Total Score by Video Review, Percentage Change from Baseline in Tremor Amplitude, Mean (SD) [1]: 1.98 (11.724) %
TETRAS Performance Subscale Total Score by Video Review, Percentage Change from Baseline in Tremor Amplitude, Median [1]: 3.53%
TETRAS Upper Limb Score by Video Review, Change from Baseline, Mean (SD) [1]: 0.21 (0.859)
TETRAS Upper Limb Score by Video Review, Change from Baseline, Median [1]: 0.00
TETRAS Upper Limb Score by Video Review, Mean (SD) [1]: 10.93 (2.440)
TETRAS Upper Limb Score by Video Review, Median [1]: 10.00
TETRAS Upper Limb Score by Video Review, Percentage Change from Baseline in Tremor Amplitude, Mean (SD) [1]: 3.57 (14.794) %
TETRAS Upper Limb Score by Video Review, Percentage Change from Baseline in Tremor Amplitude, Median [1]: 0.00%
TETRAS Performance Subscale Total Score by Video Review, Change from Baseline, Mean (SD) [2]: −0.74 (2.544)
TETRAS Performance Subscale Total Score by Video Review, Change from Baseline, Median [2]: −0.50
TETRAS Performance Subscale Total Score by Video Review, Mean (SD) [2]: 20.79 (6.715)
TETRAS Performance Subscale Total Score by Video Review, Median [2]: 20.50
TETRAS Performance Subscale Total Score by Video Review, Percentage Change from Baseline in Tremor Amplitude, Mean (SD) [2]: −4.49 (15.951) %
TETRAS Performance Subscale Total Score by Video Review, Percentage Change from Baseline in Tremor Amplitude, Median [2]: −3.53%
TETRAS Upper Limb Score by Video Review, Change from Baseline, Mean (SD) [2]: −0.29 (1.238)
TETRAS Upper Limb Score by Video Review, Change from Baseline, Median [2]: 0.00
TETRAS Upper Limb Score by Video Review, Mean (SD) [2]: 9.47 (2.809)
TETRAS Upper Limb Score by Video Review, Median [2]: 9.50
TETRAS Upper Limb Score by Video Review, Percentage Change from Baseline in Tremor Amplitude, Mean (SD) [2]: −4.23 (19.775) %
TETRAS Upper Limb Score by Video Review, Percentage Change from Baseline in Tremor Amplitude, Median [2]: 0.00%
TETRAS Performance Subscale Total Score by Video Review, Change from Baseline, Mean (SD) [3]: −0.42 (2.973)
TETRAS Performance Subscale Total Score by Video Review, Change from Baseline, Median [3]: −0.50
TETRAS Performance Subscale Total Score by Video Review, Mean (SD) [3]: 21.92 (4.398)
TETRAS Performance Subscale Total Score by Video Review, Median [3]: 21.75
TETRAS Performance Subscale Total Score by Video Review, Percentage Change from Baseline in Tremor Amplitude, Mean (SD) [3]: −2.29 (18.383) %
TETRAS Performance Subscale Total Score by Video Review, Percentage Change from Baseline in Tremor Amplitude, Median [3]: −3.47%
TETRAS Upper Limb Score by Video Review, Change from Baseline, Mean (SD) [3]: 0.33 (1.125)
TETRAS Upper Limb Score by Video Review, Change from Baseline, Median [3]: 0.75
TETRAS Upper Limb Score by Video Review, Mean (SD) [3]: 10.25 (1.666)
TETRAS Upper Limb Score by Video Review, Median [3]: 9.50
TETRAS Upper Limb Score by Video Review, Percentage Change from Baseline in Tremor Amplitude, Mean (SD) [3]: 5.82 (19.104) %
TETRAS Upper Limb Score by Video Review, Percentage Change from Baseline in Tremor Amplitude, Median [3]: 13.30%
TETRAS Performance Subscale Total Score by Video Review, Change from Baseline, Mean (SD) (Day 7, Part A (N = 7)): −1.25 (3.094)
TETRAS Performance Subscale Total Score by Video Review, Change from Baseline, Median (Day 7, Part A (N = 7)): −1.25
TETRAS Performance Subscale Total Score by Video Review, Mean (SD) (Day 7, Part A (N = 7)): 21.00 (2.449)
TETRAS Performance Subscale Total Score by Video Review, Median (Day 7, Part A (N = 7)): 21.75
TETRAS Performance Subscale Total Score by Video Review, Percentage Change from Baseline in Tremor Amplitude, Mean (SD) (Day 7, Part A (N = 7)): −7.45 (19.377) %
TETRAS Performance Subscale Total Score by Video Review, Percentage Change from Baseline in Tremor Amplitude, Median (Day 7, Part A (N = 7)): −8.23%
TETRAS Upper Limb Score by Video Review, Change from Baseline, Mean (SD) (Day 7, Part A (N = 7)): −0.25 (1.332)
TETRAS Upper Limb Score by Video Review, Change from Baseline, Median (Day 7, Part A (N = 7)): 0.00
TETRAS Upper Limb Score by Video Review, Mean (SD) (Day 7, Part A (N = 7)): 9.83 (0.816)
TETRAS Upper Limb Score by Video Review, Median (Day 7, Part A (N = 7)): 10.00
TETRAS Upper Limb Score by Video Review, Percentage Change from Baseline in Tremor Amplitude, Mean (SD) (Day 7, Part A (N = 7)): −3.79 (22.054) %
TETRAS Upper Limb Score by Video Review, Percentage Change from Baseline in Tremor Amplitude, Median (Day 7, Part A (N = 7)): 0.00%
TETRAS Performance Subscale Total Score by Video Review, Change from Baseline, Mean (SD) [4]: −2.28 (5.019)
TETRAS Performance Subscale Total Score by Video Review, Change from Baseline, Median [4]: −3.50
TETRAS Performance Subscale Total Score by Video Review, Mean (SD) [4]: 20.17 (6.595)
TETRAS Performance Subscale Total Score by Video Review, Median [4]: 20.50
TETRAS Performance Subscale Total Score by Video Review, Percentage Change from Baseline in Tremor Amplitude, Mean (SD) [4]: −13.83 (27.204) %
TETRAS Performance Subscale Total Score by Video Review, Percentage Change from Baseline in Tremor Amplitude, Median [4]: −22.26%
TETRAS Upper Limb Score by Video Review, Change from Baseline, Mean (SD) [4]: −1.15 (1.916)
TETRAS Upper Limb Score by Video Review, Change from Baseline, Median [4]: −1.50
TETRAS Upper Limb Score by Video Review, Mean (SD) [4]: 8.75 (2.880)
TETRAS Upper Limb Score by Video Review, Median [4]: 8.50
TETRAS Upper Limb Score by Video Review, Percentage Change from Baseline in Tremor Amplitude, Mean (SD) [4]: −17.86 (27.226) %
TETRAS Upper Limb Score by Video Review, Percentage Change from Baseline in Tremor Amplitude, Median [4]: −25.01%
TETRAS Performance Subscale Total Score by Video Review, Change from Baseline, Mean (SD) [5]: −2.00 (2.291)
TETRAS Performance Subscale Total Score by Video Review, Change from Baseline, Median [5]: −1.50
TETRAS Performance Subscale Total Score by Video Review, Mean (SD) [5]: 20.33 (2.754)
TETRAS Performance Subscale Total Score by Video Review, Median [5]: 20.50
TETRAS Performance Subscale Total Score by Video Review, Percentage Change from Baseline in Tremor Amplitude, Mean (SD) [5]: −12.63 (13.986) %
TETRAS Performance Subscale Total Score by Video Review, Percentage Change from Baseline in Tremor Amplitude, Median [5]: −10.23%
TETRAS Upper Limb Score by Video Review, Change from Baseline, Mean (SD) [5]: −0.88 (1.031)
TETRAS Upper Limb Score by Video Review, Change from Baseline, Median [5]: −1.00
TETRAS Upper Limb Score by Video Review, Mean (SD) [5]: 9.00 (0.913)
TETRAS Upper Limb Score by Video Review, Median [5]: 9.00
TETRAS Upper Limb Score by Video Review, Percentage Change from Baseline in Tremor Amplitude, Mean (SD) [5]: −14.41 (17.112) %
TETRAS Upper Limb Score by Video Review, Percentage Change from Baseline in Tremor Amplitude, Median [5]: −17.46%
TETRAS Performance Subscale Total Score by Video Review, Change from Baseline, Mean (SD) (Day 14, Part A (N = 7)): −2.92 (2.654)
TETRAS Performance Subscale Total Score by Video Review, Change from Baseline, Median (Day 14, Part A (N = 7)): −3.00
TETRAS Performance Subscale Total Score by Video Review, Mean (SD) (Day 14, Part A (N = 7)): 19.33 (2.380)
TETRAS Performance Subscale Total Score by Video Review, Median (Day 14, Part A (N = 7)): 19.00
TETRAS Performance Subscale Total Score by Video Review, Percentage Change from Baseline in Tremor Amplitude, Mean (SD) (Day 14, Part A (N = 7)): −17.69 (15.649) %
TETRAS Performance Subscale Total Score by Video Review, Percentage Change from Baseline in Tremor Amplitude, Median (Day 14, Part A (N = 7)): −19.21%
TETRAS Upper Limb Score by Video Review, Change from Baseline, Mean (SD) (Day 14, Part A (N = 7)): −1.33 (1.080)
TETRAS Upper Limb Score by Video Review, Change from Baseline, Median (Day 14, Part A (N = 7)): −1.50
TETRAS Upper Limb Score by Video Review, Mean (SD) (Day 14, Part A (N = 7)): 8.75 (1.294)
TETRAS Upper Limb Score by Video Review, Median (Day 14, Part A (N = 7)): 9.25
TETRAS Upper Limb Score by Video Review, Percentage Change from Baseline in Tremor Amplitude, Mean (SD) (Day 14, Part A (N = 7)): −21.27 (17.102) %
TETRAS Upper Limb Score by Video Review, Percentage Change from Baseline in Tremor Amplitude, Median (Day 14, Part A (N = 7)): −24.67%
TETRAS Performance Subscale Total Score by Video Review, Change from Baseline, Mean (SD) (Day 21, Part A (N = 7)): −1.00 (3.146)
TETRAS Performance Subscale Total Score by Video Review, Change from Baseline, Median (Day 21, Part A (N = 7)): −0.75
TETRAS Performance Subscale Total Score by Video Review, Mean (SD) (Day 21, Part A (N = 7)): 21.25 (2.734)
TETRAS Performance Subscale Total Score by Video Review, Median (Day 21, Part A (N = 7)): 21.75
TETRAS Performance Subscale Total Score by Video Review, Percentage Change from Baseline in Tremor Amplitude, Mean (SD) (Day 21, Part A (N = 7)): −5.84 (20.134) %
TETRAS Performance Subscale Total Score by Video Review, Percentage Change from Baseline in Tremor Amplitude, Median (Day 21, Part A (N = 7)): −4.59%
TETRAS Upper Limb Score by Video Review, Change from Baseline, Mean (SD) (Day 21, Part A (N = 7)): −0.67 (1.602)
TETRAS Upper Limb Score by Video Review, Change from Baseline, Median (Day 21, Part A (N = 7)): −0.25
TETRAS Upper Limb Score by Video Review, Mean (SD) (Day 21, Part A (N = 7)): 9.42 (1.320)
TETRAS Upper Limb Score by Video Review, Median (Day 21, Part A (N = 7)): 9.50
TETRAS Upper Limb Score by Video Review, Percentage Change from Baseline in Tremor Amplitude, Mean (SD) (Day 21, Part A (N = 7)): −9.56 (25.141) %
TETRAS Upper Limb Score by Video Review, Percentage Change from Baseline in Tremor Amplitude, Median (Day 21, Part A (N = 7)): −4.16%
TETRAS Performance Subscale Total Score by Video Review, Change from Baseline, Mean (SD) [6]: −0.96 (3.122)
TETRAS Performance Subscale Total Score by Video Review, Change from Baseline, Median [6]: −1.00
TETRAS Performance Subscale Total Score by Video Review, Mean (SD) [6]: 21.67 (5.809)
TETRAS Performance Subscale Total Score by Video Review, Median [6]: 21.25
TETRAS Performance Subscale Total Score by Video Review, Percentage Change from Baseline in Tremor Amplitude, Mean (SD) [6]: −5.66 (18.983) %
TETRAS Performance Subscale Total Score by Video Review, Percentage Change from Baseline in Tremor Amplitude, Median [6]: −6.88%
TETRAS Upper Limb Score by Video Review, Change from Baseline, Mean (SD) [6]: −0.67 (1.628)
TETRAS Upper Limb Score by Video Review, Change from Baseline, Median [6]: −0.50

From US20250295646A1, “METHODS OF USE OF T-TYPE CALCIUM CHANNEL MODULATORS” (Praxis Precision Medicines, Inc., priority 2022, published 2025)
